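96-well plates; 48 h exposure; 5 concentrations. Endpoints by linear interpolation between flanking doses. Not reached: highest tested concentration assigned. GI50 is the concentration that inhibits growth by half.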 The source made the active and inactive calls. Cut-off read from the data, not from the text of the source: active = GI50 up to about 1.1 µM and inactive = higher.
Columns and labels:
Test in all cases: DTP human tumour cell line panel, 48 h
U-251 = system: U-251
RPMI-8226 = system: RPMI-8226
UACC-257 = system: UACC-257
DMS-114 = system: DMS-114
SW-620 = system: SW-620
KM-20L2 = system: KM-20L2
NCI-H460 = system: NCI-H460
SF-539 = system: SF-539
RXF 393 = system: RXF 393
LXFL 529 = system: LXFL 529
ACHN = system: ACHN
SNB-19 = system: SNB-19
HCC 2998 = system: HCC 2998
IGROV-1 = system: IGROV-1
SK-MEL-5 = system: SK-MEL-5
SK-MEL-2 = system: SK-MEL-2
COLO 205 = system: COLO 205
HCT-116 = system: HCT-116
NCI-H522 = system: NCI-H522
OVCAR-5 = system: OVCAR-5
HT-29 = system: HT-29
XF498 = system: XF498
SK-MEL-28 = system: SK-MEL-28
EKVX = system: EKVX
HOP-92 = system: HOP-92
MOLT-4 = system: MOLT-4
OVCAR-8 = system: OVCAR-8
SNB-75 = system: SNB-75
LOX IMVI = system: LOX IMVI
OVCAR-3 = system: OVCAR-3
NCI-H23 = system: NCI-H23
A549 = system: A549
CAKI-1 = system: CAKI-1
UO-31 = system: UO-31
HL-60 = system: HL-60
M19-MEL = system: M19-MEL
SK-OV-3 = system: SK-OV-3
OVCAR-4 = system: OVCAR-4
UACC-62 = system: UACC-62
M14 = system: M14
TK-10 = system: TK-10
SF-268 = system: SF-268
K562 = system: K562
A498 = system: A498
DLD-1 = system: DLD-1
CCRF-CEM = system: CCRF-CEM
KM12 = system: KM12
DMS-273 = system: DMS-273
786-0 = system: 786-0
Malme-3M = system: Malme-3M
SN12C = system: SN12C
SF-295 = system: SF-295
SNB-78 = system: SNB-78
HOP-62 = system: HOP-62
HCT-15 = system: HCT-15
NCI-H226 = system: NCI-H226
HOP-18 = system: HOP-18

Compound: Clc1ccc(C2=Nc3ccccc3SC(c3ccc(Cl)c(Cl)c3)C2)c(Cl)c1 (stereo unspecified)
- GI50 (U-251): 17.8 µM (inactive)
- GI50 (RPMI-8226): 2.39 µM (inactive)
- GI50 (UACC-257): 19.5 µM (inactive)
- GI50 (DMS-114): 9.89 µM (inactive)
- GI50 (SW-620): 6.9 µM (inactive)
- GI50 (KM-20L2): 18.3 µM (inactive)
- GI50 (NCI-H460): 17.3 µM (inactive)
- GI50 (SF-539): 17.7 µM (inactive)
- GI50 (RXF 393): 15.6 µM (inactive)
- GI50 (LXFL 529): 15.3 µM (inactive)
- GI50 (ACHN): 14.2 µM (inactive)
- GI50 (SNB-19): 20.7 µM (inactive)
- GI50 (HCC 2998): 14.6 µM (inactive)
- GI50 (IGROV-1): 14.7 µM (inactive)
- GI50 (SK-MEL-5): 18 µM (inactive)
- GI50 (SK-MEL-2): 17.4 µM (inactive)
- GI50 (COLO 205): 18.5 µM (inactive)
- GI50 (HCT-116): 11.4 µM (inactive)
- GI50 (NCI-H522): 13.5 µM (inactive)
- GI50 (OVCAR-5): 17.1 µM (inactive)
- GI50 (HT-29): 11.4 µM (inactive)
- GI50 (XF498): 12.4 µM (inactive)
- GI50 (SK-MEL-28): 15.7 µM (inactive)
- GI50 (EKVX): 16.4 µM (inactive)
- GI50 (HOP-92): 13.8 µM (inactive)
- GI50 (MOLT-4): 4.9 µM (inactive)
- GI50 (OVCAR-8): 15.3 µM (inactive)
- GI50 (SNB-75): 15.4 µM (inactive)
- GI50 (LOX IMVI): 8.15 µM (inactive)
- GI50 (OVCAR-3): 13.3 µM (inactive)
- GI50 (NCI-H23): 15.3 µM (inactive)
- GI50 (A549): 21 µM (inactive)
- GI50 (CAKI-1): 13.5 µM (inactive)
- GI50 (UO-31): 14.4 µM (inactive)
- GI50 (HL-60): 8.45 µM (inactive)
- GI50 (M19-MEL): 16 µM (inactive)
- GI50 (SK-OV-3): 28.1 µM (inactive)
- GI50 (OVCAR-4): 17.1 µM (inactive)
- GI50 (UACC-62): 15.2 µM (inactive)
- GI50 (M14): 16 µM (inactive)
- GI50 (TK-10): 20.6 µM (inactive)
- GI50 (SF-268): 13.2 µM (inactive)
- GI50 (K562): 6 µM (inactive)
- GI50 (A498): 20.6 µM (inactive)
- GI50 (DLD-1): 12.6 µM (inactive)
- GI50 (CCRF-CEM): 3.11 µM (inactive)
- GI50 (KM12): 7.08 µM (inactive)
- GI50 (DMS-273): 11.5 µM (inactive)
- GI50 (786-0): 14.5 µM (inactive)
- GI50 (Malme-3M): 16.1 µM (inactive)
- GI50 (SN12C): 17.2 µM (inactive)
- GI50 (SF-295): 12.4 µM (inactive)
- GI50 (SNB-78): 18.3 µM (inactive)
- GI50 (HOP-62): 12.6 µM (inactive)
- GI50 (HCT-15): 9.71 µM
- GI50 (NCI-H226): 19 µM (inactive)

Compound: Cc1cccc2ns[s+]c12
- GI50 (U-251): 33.9 µM (inactive)
- GI50 (RPMI-8226): 99.5 µM (inactive)
- GI50 (UACC-257): > 100 µM (inactive)
- GI50 (DMS-114): 20.5 µM (inactive)
- GI50 (SW-620): 17.4 µM (inactive)
- GI50 (KM-20L2): > 100 µM (inactive)
- GI50 (NCI-H460): 23 µM (inactive)
- GI50 (SF-539): 50.7 µM (inactive)
- GI50 (LXFL 529): 37.8 µM (inactive)
- GI50 (HOP-18): > 100 µM (inactive)
- GI50 (ACHN): > 100 µM (inactive)
- GI50 (SNB-19): 66.8 µM (inactive)
- GI50 (HCC 2998): > 100 µM (inactive)
- GI50 (IGROV-1): > 100 µM (inactive)
- GI50 (SK-MEL-5): 89.7 µM (inactive)
- GI50 (COLO 205): > 100 µM (inactive)
- GI50 (HCT-116): 20 µM (inactive)
- GI50 (OVCAR-5): > 100 µM (inactive)
- GI50 (HT-29): 43.1 µM (inactive)
- GI50 (SK-MEL-28): > 100 µM (inactive)
- GI50 (EKVX): > 100 µM (inactive)
- GI50 (HOP-92): > 100 µM (inactive)
- GI50 (MOLT-4): 38.5 µM (inactive)
- GI50 (OVCAR-8): 47.1 µM (inactive)
- GI50 (SNB-75): 59 µM (inactive)
- GI50 (OVCAR-3): > 100 µM (inactive)
- GI50 (NCI-H23): > 100 µM (inactive)
- GI50 (A549): > 100 µM (inactive)
- GI50 (CAKI-1): > 100 µM (inactive)
- GI50 (UO-31): 53 µM (inactive)
- GI50 (HL-60): 36.3 µM (inactive)
- GI50 (SK-OV-3): > 100 µM (inactive)
- GI50 (OVCAR-4): > 100 µM (inactive)
- GI50 (UACC-62): 38.5 µM (inactive)
- GI50 (M14): > 100 µM (inactive)
- GI50 (TK-10): > 100 µM (inactive)
- GI50 (SF-268): 82 µM (inactive)
- GI50 (K562): 29.9 µM (inactive)
- GI50 (A498): > 100 µM (inactive)
- GI50 (DLD-1): > 100 µM (inactive)
- GI50 (CCRF-CEM): 33.3 µM (inactive)
- GI50 (KM12): > 100 µM (inactive)
- GI50 (DMS-273): 52.4 µM (inactive)
- GI50 (Malme-3M): > 100 µM (inactive)
- GI50 (SN12C): > 100 µM (inactive)
- GI50 (SF-295): > 100 µM (inactive)
- GI50 (SNB-78): > 100 µM (inactive)
- GI50 (HOP-62): > 100 µM (inactive)
- GI50 (HCT-15): 19.4 µM
- GI50 (NCI-H226): > 100 µM (inactive)

Reference: ChEMBL document CHEMBL1201862, “PubChem BioAssay data set” (2004)
